From US8927024B1, “Antimicrobial polyanhydride nanoparticles” (priority 2009, dated 2015)
Several values for one entry are separate records, joined by “and”; a condition that tells them apart may be missing. Equal values may be shown once. Read-outs that look alike come from different tables or passages of the source.

Experiments:
[1] = tested on: Mycobacterium avium subsp. paratuberculosis (MAP); assay: Viability of MAP in broth culture (% live MAP by flow); conditions: for viability at 1.25 µg/mL / viability at 10 µg/mL: Mycobacterium avium, read-out: % live MAP (viability of MAP in broth)
[2] = tested on: Brucella melitensis 16M; conditions: in vivo; cited from earlier work

Row | Compound | antimicrobial activity in MAP cultures ([1]; FIG. 15, 10 μg/mL amikacin) | viability at 1.25 µg/mL ([1]; 24 h) [%] | viability at 10 µg/mL ([1]; 24 h) [%] | viability at 1.25 µg/mL ([1]; 48 h) [%] | viability at 10 µg/mL ([1]; 48 h) [%] | Log CFU/spleen [2] [Log CFU/spleen] | Reduction (log) [2] | Spleen wt [2]
1 | NCC[C@H](O)C(=O)N[C@@H]1C[C@H](N)[C@@H](O[C@H]2O[C@H](CN)[C@@H](O)[C@H](O)[C@H]2O)[C@H](O)[C@H]1O[C@H]1O[C@H](CO)[C@@H](O)[C@H](N)[C@H]1O [Soluble, amikacin] | minimal antimicrobial activity | 93.8 | 90.1 | 88.4 | 84.8 |  |  | 
2 | gentamicin [Free GEN] |  |  |  |  |  | 6.77 ± 0.12 | 0.08 log and 0.04 log | 0.86 ± 0.05 g and 0.83 ± 0.26 g
